Assay results reported in US20040259948A1, “Reciprocal regulation of inflammation and lipid metabolism by liver X receptors” (priority 2003, published 2004).

Columns and labels:
[1] = test system: Thioglycolate-elicited peritoneal macrophages; assay: Macrophage response to E. coli infection: iNOS mRNA and NO production; type: cell-based, murine; details: 18 h, pretreated with 1 μM ligand, real-time quantitative PCR
Procedure: Thioglycolate-elicited peritoneal macrophages were infected in vitro with Escherichia coli. After 18 hours, expression of inducible nitric oxide synthase (iNOS) mRNA and nitric oxide (NO) production were assessed. […] Cells were then infected with E. coli (A, B) or treated with 100 ng/ml LPS(C, D, E) as indicated. After 18 h, NO production was determined using a colorimetric assay (A, D), or mRNA levels were determined using real-time quantitative PCR assays (B, C, E).
Thioglycolate-elicited peritoneal macrophages were cultured in RPMI containing 10% fetal bovine serum (FBS). […] For ligand treatments, cells were in cultured medium supplemented with 5% lipoprotein-deficient serum (LPDS) and ligands for 18 h before stimulation. […] NO production was determined spectrophotometrically (Castrillo, A. et al. 2000 Mol Cell Biol 20:1692-1698).
Total RNA was extracted using Trizol reagent (Life Technologies, Inc.). […] Real-time quantitative PCR (TaqMan) analysis was performed using an Applied Biosystems 7700 sequence detector.

[2] = test system: Thioglycolate-elicited murine peritoneal macrophages; assay: LPS-stimulated macrophages: NO production, iNOS and ABCA1 mRNA; type: cell-based; details: for iNOS mRNA: 100 ng/ml LPS, 18 h, pretreated with 1 μM ligand, real-time quantitative PCR
Procedure: To investigate the role of LXRs in host defense, the influence of LXR agonists on macrophage responses to bacterial pathogens was tested. Thioglycolate-elicited peritoneal macrophages were infected in vitro with Escherichia coli. After 18 hours, expression of inducible nitric oxide synthase (iNOS) mRNA and nitric oxide (NO) production were assessed. […] This repression occurs over the same concentration range needed to induce the established LXR target gene ATP-binding cassette transporter A1 (ABCA1). A, LXR agonist inhibits nitrite production in response to bacterial infection. […] Cells were then infected with E. coli (A, B) or treated with 100 ng/ml LPS(C, D, E) as indicated. After 18 h, NO production was determined using a colorimetric assay (A, D), or mRNA levels were determined using real-time quantitative PCR assays (B, C, E). […] The inhibitory effect of LXR agonists on iNOS expression was dose-dependent and occurred over the same range of concentration as that required to induce ATP-binding cassette transporter A1 (ABCA1) (FIGS. 1D and E).
The anti-inflammatory activity of LXR ligands can be separated from the induction of lipid metabolism genes such as ABCA1. Murine peritoneal macrophages were treated with LPS to induce iNOS gene expression (FIG. 8A) and were assayed for ABCA1 mRNA by real time qPCR (FIG. 8B). NOx production was measured by colorimetric assay. […] The identification of LXR agonists with only anti-inflammatory activity should greatly increase the usefulness of such compounds as therapeutic agents, because they lack the unwanted side effects on lipid metabolism such as elevation of triglyceride levels.
Cell culture and transfections. Thioglycolate-elicited peritoneal macrophages were cultured in RPMI containing 10% fetal bovine serum (FBS). RAW 264.7 cells were cultured in DMEM containing 10% FBS. For ligand treatments, cells were in cultured medium supplemented with 5% lipoprotein-deficient serum (LPDS) and ligands for 18 h before stimulation. Bacterial infection in vitro was performed as described (Chen, L. M. et al. 1996 Mol Microbiol 21:1101-1115). Transient transfections of RAW 264.7 cells were performed in triplicate in 48-well plates using Superfect reagent (Life Technologies). After transfection, cells were incubated in medium containing 10% LPDS and the indicated ligands for 18 h before stimulation with LPS for an additional 18 h. Luciferase activity was normalized to β-galactosidase activity. NO production was determined spectrophotometrically (Castrillo, A. et al. 2000 Mol Cell Biol 20:1692-1698).
RNA and protein analysis. Total RNA was extracted using Trizol reagent (Life Technologies, Inc.). Northern blot analysis was carried out as described using radiolabeled cDNA probes (Tontonoz, P. et al. 1998 Cell 93:241-252). Real-time quantitative PCR (TaqMan) analysis was performed using an Applied Biosystems 7700 sequence detector. Two-step real-time PCR was performed as described (Joseph, S. B. et al. 2002 J Biol Chem 277:11019-11025). The primers and probes used are as follows: […]

[3] = test system: Thioglycolate-elicited murine peritoneal macrophages; assay: IL-1β- or TNFα-induced inflammatory gene expression in macrophages; type: cell-based; details: pretreated 18 h; IL-1β or TNFα (50 ng/ml); real-time quantitative PCR
Procedure: Next, the influence of LXR agonists on inflammatory gene expression induced by IL-1β and TNFα, which have been implicated in the pathogenesis of atherosclerosis, was tested. […] Gene expression was detected by real-time quantitative PCR assays. […] Total RNA was isolated from individual aortas and gene expression was measured by real-time quantitative PCR. P<0.05 for MMP-9 (*) and P<0.01 (**) for ABCA1. […] Thus, LXR agonist reduces expression of an established inflammatory mediator in the vessel wall. Cell culture and transfections. Thioglycolate-elicited peritoneal macrophages were cultured in RPMI containing 10% fetal bovine serum (FBS). RAW 264.7 cells were cultured in DMEM containing 10% FBS. For ligand treatments, cells were in cultured medium supplemented with 5% lipoprotein-deficient serum (LPDS) and ligands for 18 h before stimulation. Bacterial infection in vitro was performed as described (Chen, L. M. et al. 1996 Mol Microbiol 21:1101-1115). Transient transfections of RAW 264.7 cells were performed in triplicate in 48-well plates using Superfect reagent (Life Technologies). After transfection, cells were incubated in medium containing 10% LPDS and the indicated ligands for 18 h before stimulation with LPS for an additional 18 h. Luciferase activity was normalized to β-galactosidase activity. NO production was determined spectrophotometrically (Castrillo, A. et al. 2000 Mol Cell Biol 20:1692-1698). RNA and protein analysis. Total RNA was extracted using Trizol reagent (Life Technologies, Inc.). Northern blot analysis was carried out as described using radiolabeled cDNA probes (Tontonoz, P. et al. 1998 Cell 93:241-252). Real-time quantitative PCR (TaqMan) analysis was performed using an Applied Biosystems 7700 sequence detector. Two-step real-time PCR was performed as described (Joseph, S. B. et al. 2002 J Biol Chem 277:11019-11025). The primers and probes used are as follows: […]

[4] = test system: human aortic endothelial cells; assay: TNF-induced gene expression in human aortic endothelial cells; type: cell-based; details: TNF 6 hours; real time qPCR
Procedure: (§1) Activation of LXR by synthetic ligands inhibits inflammatory gene expression in multiple human cell types (FIG. 7A-C). TNFα plays a role in the induction of inflammatory mediators in during inflammation. Cells were treated for 6 hours with TNF as indicated and gene expression was measured by real time qPCR.

[5] = test system: Thioglycolate-elicited murine peritoneal macrophages; assay: Expression of NF-κB target genes in LPS-treated macrophages (northern blot, real-time quantitative PCR); type: cell-based
Procedure: LPS is an established inducer of the NF-κB signaling pathway in macrophages. Several genes inhibited by LXR ligands in the array studies above are established targets of NF-κB. To further investigate the role of LXRs in NF-κB-dependent gene expression, we analyzed expression of NF-κB target genes in peritoneal macrophages from wild-type mice. […] Expression of NF-κB target genes was determined by northern blot (A) or by real-time quantitative PCR assays (B). 36B4 was used as a control for RNA loading and integrity. […] RNA and protein analysis. Total RNA was extracted using Trizol reagent (Life Technologies, Inc.). Northern blot analysis was carried out as described using radiolabeled cDNA probes (Tontonoz, P. et al. 1998 Cell 93:241-252). Real-time quantitative PCR (TaqMan) analysis was performed using an Applied Biosystems 7700 sequence detector. Two-step real-time PCR was performed as described (Joseph, S. B. et al. 2002 J Biol Chem 277:11019-11025). The primers and probes used are as follows: […]

C57B1/6 mice = assay: Murine model of irritant contact dermatitis (TPA-treated ear); type: in vivo; details: topical 20 μl of 10 mM at 45 min and 4 h post-TPA; 18 h; relative to vehicle-treated ear
Procedure: The effects of LXR ligands in both acute and chronic inflammatory contexts were evaluated. First, the effects of LXR agonists in a murine model of irritant contact dermatitis (Sheu, M. Y. et al. 2002 J Invest Dermatol 118:94-101) were studied. Ears of C57B1/6 mice (n=5 per group) were treated topically with 12-O-tetradecanoylphorbol-13-acetate (TPA) (left ear) or with vehicle (right ear). […] Thickness and weight of 6-mm punch biopsies were determined for each group after 18 h TPA treatment and are presented relative to vehicle-treated ear. […] Analysis of hematoxylin and eosin (H&E) stained sections of the TPA-treated ears confirmed a reduction in edema and inflammatory infiltrate by LXR agonist. Thus, two structurally unrelated LXR agonists have anti-inflammatory activity in a model of cutaneous inflammation.
Animals. Mice on a mixed background (C57B1/6 and 129v) and Apoe^−/− mice on a C57B1/6 background were maintained on standard chow. […] Irritant contact dermatitis was induced as described (Sheu, M. Y. et al. 2002 J Invest Dermatol 118:94-101). Briefly, 10 μl of 0.03% 12-O-tetradecanoylphorbol-13-acetate (TPA) in acetone was applied to the left ears of male mice. The right ears were treated with vehicle alone. […] After 18 h of TPA treatment, the thickness and weight of 6-mm punch biopsies were determined. Statistical analysis was performed using Student's t-test. Experiments were conducted in accordance of the Animal Research Committee of the University of California, Los Angeles.

[6] = test system: human peripheral blood mononuclear cells; assay: TNF-induced gene expression in human peripheral blood mononuclear cells; type: cell-based; details: TNF 6 hours; real time qPCR
Procedure: as §1

[7] = test system: human smooth muscle cells; assay: TNF-induced gene expression in human smooth muscle cells; type: cell-based; details: TNF 6 hours; real time qPCR
Procedure: as §1

Cc1cc(SCc2sc(-c3ccc(C(F)(F)F)cc3)nc2C)ccc1OCC(=O)O [GW1516]
iNOS mRNA [1]: minimal effects
iNOS mRNA [2]: minimal effects

O=S(=O)(c1ccccc1)N(CC(F)(F)F)c1ccc(C(O)(C(F)(F)F)C(F)(F)F)cc1 [T1317, N-(2,2,2-trifluoro-ethyl)-N-[4-(2,2,2-trifluoro-1-hydroxy-1-trifluoromethyl-ethyl)-phenyl]-benzenesulfonamide]
induction of IL-6 expression [3]: inhibit
induction of iNOS expression [3]: inhibit
TNF-induced gene expression [4]: inhibited
receptor-independent induction of IL-6 [5]: modest receptor-independent induction
receptor-independent induction of MCP-1 [5]: modest receptor-independent induction
ear thickness (C57B1/6 mice): reduced
ear weight (6-mm punch biopsies) (C57B1/6 mice): reduced
TNF-induced gene expression [6]: inhibited
TNF-induced gene expression [7]: inhibited
activation of ABCA1 gene expression, T1317 compared with GW3965 ([2]; increasing doses, real time qPCR, FIG. 8B): more effective activator

GW7647
iNOS mRNA [1]: minimal effects
iNOS mRNA [2]: minimal effects
